From ChEMBL document CHEMBL1135325, “Novel piperidinium and pyridinium agents as water-soluble acetylcholinesterase inhibitors for the reversal of neuromuscular blockade” (Bioorg Med Chem Lett, 2002)

Key:
Acetylcholinesterase = Acetylcholinesterase (Homo sapiens, UniProt P22303); test: Concentration required for the inhibition of acetylcholinesterase
[1] = Aqueous solubility; type: physicochemical; settings: water; for solubility: read-out: S

Chain of Acetylcholinesterase (P22303 whole entry): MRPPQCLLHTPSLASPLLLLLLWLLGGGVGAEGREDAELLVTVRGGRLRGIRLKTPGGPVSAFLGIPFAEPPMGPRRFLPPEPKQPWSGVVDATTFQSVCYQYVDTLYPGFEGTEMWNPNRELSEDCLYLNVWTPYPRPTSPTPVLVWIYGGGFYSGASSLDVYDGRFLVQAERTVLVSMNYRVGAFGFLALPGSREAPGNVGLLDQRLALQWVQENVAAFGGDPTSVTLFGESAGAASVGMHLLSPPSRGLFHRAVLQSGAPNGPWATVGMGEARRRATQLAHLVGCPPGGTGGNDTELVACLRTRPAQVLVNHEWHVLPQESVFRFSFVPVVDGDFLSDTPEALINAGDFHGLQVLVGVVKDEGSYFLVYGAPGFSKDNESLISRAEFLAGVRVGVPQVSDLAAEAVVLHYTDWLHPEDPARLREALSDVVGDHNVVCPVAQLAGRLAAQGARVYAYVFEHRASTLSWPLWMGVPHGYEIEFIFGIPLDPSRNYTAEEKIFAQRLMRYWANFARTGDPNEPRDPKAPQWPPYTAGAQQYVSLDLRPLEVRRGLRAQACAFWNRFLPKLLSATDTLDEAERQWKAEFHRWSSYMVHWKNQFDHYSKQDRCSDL

SMILES: COc1cc2cc(C(=O)CCc3cc[n+](Cc4ccc([N+](=O)[O-])o4)cc3)sc2cc1OC.[Br-]
- IC50 (Acetylcholinesterase): 4.5 nM
- solubility [1]: 35000 µg/mL

SMILES: COc1cc2cc(C=C3CC[N+](C)(Cc4ccccc4)CC3)sc2cc1OC.[Br-] (stereo not drawn)
- IC50 (Acetylcholinesterase): 2670 nM
- solubility [1]: 1000 µg/mL

SMILES: COc1cc2cc(C(=O)CCc3cc[n+](Cc4ccsc4)cc3)sc2cc1OC
- IC50 (Acetylcholinesterase): 6 nM
- solubility [1]: 2000 µg/mL

SMILES: COc1cc2cc(C(=O)CCC3CC[N+](C)(CC#N)CC3)sc2cc1OC.[Br-] (stereo not drawn)
- IC50 (Acetylcholinesterase): > 1000 nM
- solubility [1]: 2000 µg/mL

SMILES: COCC[N+]1(C)CCC(CCC(=O)c2cc3cc(OC)c(OC)cc3s2)CC1.[Br-] (stereo not drawn)
- IC50 (Acetylcholinesterase): 53 nM
- solubility [1]: 60000 µg/mL

SMILES: COCC[n+]1ccc(CCC(=O)c2cc3cc(OC)c(OC)cc3s2)cc1
- IC50 (Acetylcholinesterase): 30 nM
- solubility [1]: 33000 µg/mL

SMILES: COc1cc2cc(C(=O)CC3(O)CC[N+](C)(Cc4ccccc4)CC3)sc2cc1OC.[Br-] (stereo not drawn)
- solubility [1]: 1250 µg/mL

SMILES: COc1cc2cc(C(=O)CCC3CC[N+](C)(Cc4ccccc4)CC3)sc2cc1OC.[Br-] (stereo not drawn)
- solubility [1]: 2000 µg/mL

SMILES: COc1cc2cc(C(=O)CCc3cc[n+](CC4CCC4)cc3)sc2cc1OC.[Br-]
- IC50 (Acetylcholinesterase): 40 nM
- solubility [1]: 6000 µg/mL

SMILES: COc1cc2cc(C(=O)CCC3CC[N+](C)(Cc4ccc([N+](=O)[O-])o4)CC3)sc2cc1OC.[Br-] (stereo not drawn)
- IC50 (Acetylcholinesterase): 32 nM
- solubility [1]: 600 µg/mL

SMILES: COc1cc2cc(C(=O)CC3=CC[N+](C)(Cc4ccccc4)CC3)sc2cc1OC.[Br-] (stereo not drawn)
- IC50 (Acetylcholinesterase): 750 nM
- solubility [1]: 20000 µg/mL

SMILES: COC(=O)c1ccc(C[n+]2ccc(CCC(=O)c3cc4cc(OC)c(OC)cc4s3)cc2)cc1
- solubility [1]: 3500 µg/mL

SMILES: COc1cc2cc(C(=O)CCc3cc[n+](Cc4ccc(F)cc4)cc3)sc2cc1OC
- IC50 (Acetylcholinesterase): 2.6 nM
- solubility [1]: 1000 µg/mL

SMILES: COc1cc2cc(C(=O)CCC3CC[N+](C)(CC4CCCCO4)CC3)sc2cc1OC.[Br-] (stereo not drawn)
- IC50 (Acetylcholinesterase): 28 nM
- solubility [1]: 1500 µg/mL

SMILES: CCOCC[n+]1ccc(CCC(=O)c2cc3cc(OC)c(OC)cc3s2)cc1
- IC50 (Acetylcholinesterase): 7 nM
- solubility [1]: 50000 µg/mL

SMILES: COc1cc2cc(C(=O)CC(O)C3CC[N+](C)(Cc4ccccc4)CC3)sc2cc1OC.[Br-] (stereo in doubt; 6)
- IC50 (Acetylcholinesterase): 43 nM
- S [1]: 10 mg/mL

SMILES: COc1cc2cc(C(=O)CC(O)C3CC[N+](C)(Cc4ccccc4)CC3)sc2cc1OC (stereo in doubt; 9) [listing 1 of 2 here]
- Solubility (Aqueous solubility): 10000 µg/mL

SMILES: COc1cc2cc(C(=O)C=C3CC[N+](C)(Cc4ccccc4)CC3)sc2cc1OC.[Br-] (stereo not drawn)
- IC50 (Acetylcholinesterase): 520 nM
- solubility [1]: 25000 µg/mL

SMILES: CCC[n+]1ccc(CCC(=O)c2cc3cc(OC)c(OC)cc3s2)cc1.[Br-]
- solubility [1]: 16000 µg/mL

SMILES: COc1cc2cc(C(=O)CC(OC)C3CC[N+](C)(Cc4ccccc4)CC3)sc2cc1OC.[Br-] (stereo not drawn)
- IC50 (Acetylcholinesterase): 120 nM
- solubility [1]: 1500 µg/mL

SMILES: COc1cc2cc(C(=O)CCc3cc[n+](C)cc3)sc2cc1OC.[Br-]
- IC50 (Acetylcholinesterase): 900 nM
- solubility [1]: 3000 µg/mL

SMILES: COc1cc2cc(C(=O)CC(O)CCC3CC[N+](C)(Cc4ccccc4)CC3)sc2cc1OC.[Br-] (stereo not drawn)
- IC50 (Acetylcholinesterase): 380 nM
- solubility [1]: 2500 µg/mL

SMILES: COc1cc2cc(CC3CC[N+](C)(Cc4ccccc4)CC3)sc2cc1OC.[Br-] (stereo not drawn)
- IC50 (Acetylcholinesterase): 10000 nM
- solubility [1]: 3000 µg/mL

SMILES: COc1cc2cc(C(=O)CC(O)C3CC[N+](C)(Cc4ccccc4)CC3)sc2cc1OC.[Br-] (single isomer, unassigned; (+))
- IC50 (Acetylcholinesterase): 219 nM
- solubility [1]: 10000 µg/mL

SMILES: COC(=O)C[N+]1(C)CCC(CCC(=O)c2cc3cc(OC)c(OC)cc3s2)CC1.[Br-] (stereo not drawn)
- IC50 (Acetylcholinesterase): 54 nM
- solubility [1]: 60000 µg/mL

SMILES: COc1cc2cc(C(=O)CCC3CC[N+](C)(CCOc4ccccc4)CC3)sc2cc1OC.[Br-] (stereo not drawn)
- IC50 (Acetylcholinesterase): 390 nM
- solubility [1]: 900 µg/mL

SMILES: COc1cc2cc(C(=O)CCCCC3CC[N+](C)(Cc4ccccc4)CC3)sc2cc1OC.[Br-] (stereo not drawn)
- IC50 (Acetylcholinesterase): 110 nM
- solubility [1]: 1000 µg/mL

SMILES: COc1cc2cc(C(=O)CCc3cc[n+](Cc4ccccc4)cc3)sc2cc1OC
- solubility [1]: 2000 µg/mL

SMILES: C=CC[n+]1ccc(CCC(=O)c2cc3cc(OC)c(OC)cc3s2)cc1.[Br-]
- IC50 (Acetylcholinesterase): 540 nM
- solubility [1]: 25000 µg/mL

SMILES: COc1cc2cc(C(=O)CC(O)C3CC[N+](C)(Cc4ccccc4)CC3)sc2cc1OC (stereo in doubt; 9) [listing 2 of 2 here]
- IC50 (Acetylcholinesterase): 190 nM

SMILES: CC[n+]1ccc(CCC(=O)c2cc3cc(OC)c(OC)cc3s2)cc1.[Br-]
- IC50 (Acetylcholinesterase): 280 nM
- solubility [1]: 25000 µg/mL

SMILES: COc1cc2cc(C(=O)CCc3cc[n+](CC4CC4)cc3)sc2cc1OC.[Br-]
- IC50 (Acetylcholinesterase): 110 nM
- solubility [1]: 15000 µg/mL

SMILES: COc1cc2cc(C(O)C3CC[N+](C)(Cc4ccccc4)CC3)sc2cc1OC.[Br-] (stereo not drawn)
- IC50 (Acetylcholinesterase): 19600 nM
- solubility [1]: 2000 µg/mL

SMILES: COc1cc2cc(C(=O)CC(O)C3CC[N+](C)(Cc4ccccc4)CC3)sc2cc1OC.[Br-] (single isomer, unassigned; (-))
- IC50 (Acetylcholinesterase): 665 nM
- S [1]: 8 mg/mL

SMILES: COc1cc2cc(C(=O)CCC3CC[N+](C)(CC(=O)OC(C)(C)C)CC3)sc2cc1OC.[Br-] (stereo not drawn)
- IC50 (Acetylcholinesterase): 79 nM
- solubility [1]: 1500 µg/mL
